According to patent publication US8440637B2, “Combination treatment for the treatment of hepatitis C virus infection” (priority 2007, dated 2013):
Strand notation (5' to 3'): a small letter for the sugar, then the base; units joined by * are phosphorothioate-linked, units joined directly phosphodiester-linked; [ ] holds rarer units or linkages, { } end groups; capitals alone tell only the bases. l = locked nucleic acid (LNA); [5mC] = 5-methylcytosine; d = 2'-deoxy (DNA)

Legend:
[1] = tested on: miR-122a target genes (Bckdk, aldolase A, Nrdg3, CD320, Vldlr); test: miR-122a target mRNA levels in mouse liver by qPCR; assay type: in vivo; details: 5 mg/kg i.p. twice weekly for 5½ weeks
[2] = tested on: miR-122a; test: miR-122a levels in mouse liver by microRNA specific qPCR; assay type: in vivo; details: hypercholesterolemic and normal mice; 5 mg/kg i.p. twice weekly for 5½ weeks
Description: Total RNA was extracted from liver samples as described above and analysed for miR-122a levels by microRNA specific QPCR.
In vivo study: Ten groups of animals (female C57/BL6; 3 mice per group) were treated in the following manner. Group 1 animals were injected with 0.2 ml saline by i.p. on day 0, day 2 and day 4. Groups 2-10 were dosed by i.p. with three different conc. (25 mg/kg, 5 mg/kg and 1 mg/kg) of either LNA antimiR-122a/SEQ ID NO: 61 (group 2-4), LNA antimir-122a/SEQ ID NO: 66 (group 5-7) or LNA antimir-122a/SEQ ID NO: 63 (group 8-10); the LNA antimir-122a sequences are given in the Table 1. All three LNA antimiR-122a oligonucleotides target the liver-specific miR-122a. The doses were calculated from the Day 0 body weights of each animal.
The animals were sacrificed 48 hours after last dose (Day 6), retro-orbital blood was collected in tubes containing EDTA and the plasma fraction harvested and stored frozen −80° C. for cholesterol analysis. At sacrifice livers were dissected and one portion was cut into 5 mm cubes and immersed in 5 volumes of ice-cold RNAlater. A second portion was snap frozen in liquid nitrogen and stored for cryo-sectioning.
Total RNA was extracted from liver samples using Trizol reagent according to the manufacturer's recommendations (Invitrogen, USA) and analysed for miR-122a levels by microRNA-specific QPCR according to the manufacturer's recommendations (Ambion, USA). […]
NMRI female mice were treated with indicated doses of LNA-antimiR (SEQ ID NO: 61) along with a mismatch control (m, SEQ ID NO: 65), saline and antagomir (SPC3595) for three consecutive days and sacrificed 24 hours after last dose (as in example 11 “old design”, n=5). miR-122 levels were analyzed by qPCR and normalized to the saline treated group.
(§1) C57BL/6J female mice were fed on high fat diet for 13 weeks before the initiation of the SEQ ID NO: 63 treatment. […] Both hypercholesterolemic and normal mice were treated i.p. twice weekly with 5 mg/kg SEQ ID NO: 63 and the corresponding mismatch control for a study period of 5½ weeks. Blood samples were collected weekly and total plasma cholesterol was measured during the entire course of the study. Upon sacrificing the mice, liver and blood samples were prepared for total RNA extraction, miRNA and mRNA quantification, assessment of the serum transaminase levels, and liver histology.
The miR-122 and let-7a microRNA levels were quantified with TaqMan microRNA Assay (Applied Biosystems) following the manufacturer's instructions. The RT reaction was diluted ten times in water and subsequently used for real time PCR amplification according to the manufacturer's instructions. A two-fold cDNA dilution series from liver total RNA of a saline-treated animal or mock transfected cells cDNA reaction (using 2.5 times more total RNA than in samples) served as standard to ensure a linear range (Ct versus relative copy number) of the amplification. Applied Biosystems 7500 or 7900 real-time PCR instrument was used for amplification.

[3] = tested on: miR-122; test: Total plasma cholesterol in hypercholesterolemic and normal mice, long-term treatment; assay type: in vivo, mouse; details: hypercholesterolemic and normal mice; 5 mg/kg i.p. twice weekly
Description: as §1
C57BL/6J female mice (Taconic M&B Laboratory Animals, Ejby, Denmark) were used. All substances were formulated in physiological saline (0.9% NaCl) to final concentration allowing the mice to receive an intraperitoneal injection volume of 10 ml/kg.
In the diet induced obesity study, the mice received a high fat (60EN %) diet (D12492, Research Diets) for 13 weeks to increase their blood cholesterol level before the dosing started. The dose regimen was stretched out to 5½ weeks of 5 mg/kg LNA-antimiR™ twice weekly. Blood plasma was collected once a week during the entire dosing period. After completion of the experiment the mice were sacrificed and RNA extracted from the livers for further analysis. Serum was also collected for analysis of liver enzymes.
Immediately before sacrifice retro-orbital sinus blood was collected in EDTA-coated tubes followed by isolation of the plasma fraction. Total plasma cholesterol was analysed using ABX Pentra Cholesterol CP (Horiba Group, Horiba ABX Diagnostics) according to the manufacturer's instructions.

[4] = tested on: miR-122a; test: miR-122a level in transfected Huh-7 cells by miR-122a specific qRT-PCR; assay type: cell-based, human; details: transfected at 1 and 100 nM, 24 hours after transfection
Description: The miR-122a expressing cell line Huh-7 was transfected with LNA anti-miR5 at 1 and 100 nM concentrations according to optimized lipofectamine 2000 (LF2000, Invitrogen) protocol (as follows).
Huh-7 cells were cultivated in Eagles MEM with 10% FBS, 2 mM Glutamax I, 1× non-essential amino acids, Gentamicin 25 μg/ml. The cells were seeded in 6-well plates (300000 cells per well), in a total vol. of 2.5 ml the day before transfection. At the day of transfection a solution containing LF2000 diluted in Optimem (Invitrogen) was prepared (1.2 ml optimem+3.75 μl LF2000 per well, final 2.5 μg LF2000/ml, final tot vol 1.5 ml).
LNA Oligonucleotides (LNA anti-miRs) were also diluted in optimem. 285 μl optimem+15 μl LNA oligonucleotide (10 μM oligonucleotide stock for final concentration 100 nM and 0.1 μM for final concentration 1 nM) Cells were washed once in optimem then the 1.2 ml optimem/LF2000 mix were added to each well. Cells were incubated 7 min at room temperature in the LF2000 mix where after the 300 μl oligonucleotide optimem solution was added. […]
miR-122a levels in the RNA samples were assessed on an ABI 7500 Fast real-time PCR instrument (Applied Biosystems, USA) using a miR-122a specific qRT-PCR kit, mirVana (Ambion, USA) and miR-122a primers (Ambion, USA). […]

[5] = tested on: miR-122a; test: Melting temperature (Tm) of LNA anti-miR/miR-122a RNA duplex; assay type: physicochemical, human; details: Table 2; towards synthetic miR-122a RNA oligonucleotide with phosphorothioate linkages; PS backbone
Description: The melting temperatures were assessed towards the mature miR-122a sequence, using a synthetic miR-122a RNA oligonucleotide with phosphorothioate linkaged.
The LNA anti-miR/miR-122a oligo duplex was diluted to 3 μM in 500 μl RNase free H2O, which was then mixed with 500 μl 2× dimerization buffer (final oligo/duplex conc. 1.5 μM, 2× Tm buffer: 200 mM NaCl, 0.2 mM EDTA, 20 mM NaP, pH 7.0, DEPC treated to remove RNases). The mix was first heated to 95 degrees for 3 minutes, then allowed to cool at room temperature (RT) for 30 minutes.
Following RT incubation Tm was measured on Lambda 40 UV/VIS Spectrophotometer with peltier temperature progammer PTP6 using PE Templab software (Perkin Elmer). The temperature was ramped up from 20° C. to 95° C. and then down again to 20° C., continuously recording absorption at 260 nm. First derivative and local maximums of both the melting and annealing was used to assess melting/annealing point (Tm), both should give similar/same Tm values. For the first derivative 91 points was used to calculate the slope.

Substance	de-repression of direct miR-122 target genes (AldoA and Bckdk) after long-term treatment (in words) [1]	miR-122 levels in liver after long-term treatment (in words) [2]	effect on plasma cholesterol levels (in words) [3]	inhibition of miR-122a (in words) [4]	Tm (° C.) [5] [°C]
mismatch control: the corresponding mismatch control to SEQ ID NO: 63 in Example 31; probably SEQ ID NO: 64 (antisense l[5mC]*dC*lA*dT*dT*l[5mC]*lT*dG*dA*l[5mC]*dC*l[5mC]*dT*lA*l[5mC]) [reference compound]	did not result in any functional de-repression	had an effect on miR-122 levels	did not affect the plasma cholesterol levels	–	–
5′-CcAttCTgaCcCtAC-3′ (antisense l[5mC]*dC*lA*dT*dT*l[5mC]*lT*dG*dA*l[5mC]*dC*l[5mC]*dT*lA*l[5mC]) [SEQ ID NO: 64, reference compound]	–	–	–	not found to inhibit miR-122a	32
